# Results: US12642809B2, “Fucosylation and immune modulation in cancer” (H. LEE MOFFITT CANCER CENTER AND RESEARCH INSTITUTE, INC., priority 2019, dated 2026)
# What was measured:
# SM1 melanoma tumors = SM1 melanoma tumors in C57BL/6 mice fed control or L-fucose water; format: in vivo, mouse
# Experimental: Tumors of SW1 or SMI melanoma cells from C3H/HeJ or C57BL/6 mice, respectively) were digested using 1× tumor digest buffer (0.5 mg/ml. Collagenase I, 0.5 mg/ml. Collagenase IV, 0.25 mg/ml. Hyalyronidase V. 0.1 mg/ml. DNAse I in HBSS (Millipore Sigma (St. Louis, MO)). Tumors were homogenized using the Miltenyi MACs dissociator. Red blood cells were lysed using ACK lysis buffer (Life Technologies, (Grand Island, NY)). Tumor homogenate cells were counted using a standard hemocytometer. (7) Flow Cytometry (a) TIL Profiling:
# Single-cell suspensions from tumor and spleen tissue were stained with Live/Dead Zombie NIR (Biolegend, (San Diego, CA)) at 1:1,000 in PBS for 20 min. Cell suspensions were spun down and stained with the following antibodies: APC anti-mouse CD3 (0.5 μg/mL, BD Biosciences (San Jose, CA)), Pacific Blue anti-mouse CD4 ([…], BD Biosciences (San Jose, CA)), BV785 anti-mouse CD8 (0.5 μg/mL, BD Biosciences (San Jose, CA)), PerCP anti-mouse CD25 ([…], BD Biosciences (San Jose, CA)), FITC anti-mouse F4/80 (0.5 μg/mL, BD Biosciences (San Jose, CA)), PeCy7 anti-mouse CD11c (0.5 μg/mL, BD Biosciences (San Jose, CA)), PE anti-mouse NK1.1 (0.5 μg/mL, BD Biosciences (San Jose, CA)), PE anti-mouse DX5 (0.5 μg/mL, BD Biosciences (San Jose, CA)), PerCP-Cy5.5 anti-mouse CD11b (0.5 μg/mL, BD Biosciences (San Jose, CA)). After staining, the cells were washed and fixed (2% formaldehyde), followed by another wash and flow cytometric analysis. The compensation controls were prepared using 0.5 μg/ml. of each antibody with beads UltraComp eBeads™, (ThermoFisher Scientific (Waltham, MA)). All samples were subject to flow cytometric analysis using a LSR Flow Cytometer (BD Biosciences (San Jose, CA)). Flow cytometric data was further analyzed using FlowJo™ analysis software (BD Biosciences (San Jose, CA)). TIL profiles were determined as a measure of TIL subpopulations per gram of tumor tissues or % of total splenocytes.
# FFPE mouse tumor sections were immunostained with FITC-conjugated AAL lectin (0.4 μg/mL, Vector Laboratories (Burlingame, CA)), rabbit anti-Mart-1 (0.2 μg/mL, Millipore Sigma (St. Louis, MO), and rabbit anti-S100 (0.2 μg/mL, Agilent Technologies (Santa Clara, CA)), followed by AlexaFluor 594 donkey anti-rabbit secondary antibody (0.05 μg/mL, ThermoFisher Scientific (Waltham, MA)). The slides were mounted with VECTASHIELD®+DAPI (Vector Laboratories (Burlingame, CA)). Microscopy images were acquired using a Keyence BZ-X710 microscope (Osaka, Japan), and images were measured for AAL-positive signal within MARTI-/S 100-positive regions (designated as melanoma regions of interest) using FIJI software (NIH). Statistical analysis was performed using GraphPad Prism™ (San Diego, CA).
# Four-to-six-week-old female C3HeN and male C57BL6 mice were purchased from Charles Rivers Laboratories for the indicated experiments. Four-to-six-week-old male NSG mice from the Lau laboratory breeding colony were used for the indicated experiments. Mice were housed in the Comparative Medicine Facility at H. Lee Moffitt Cancer Center and Research Institute. Mouse tumor volumes were measured using length, width and depth divided by 2. Generally, 10 mice were assigned to each indicated treatment cohort, and 1×10^6 melanoma cells were subcutaneously injected into the right rear flanks of the recipient mice. At each experimental endpoint, mice were humanely euthanized using CO2 inhalation in accordance to the American Veterinary Medical Association guidelines. […] All experiments were approved by the Institutional Animal Care and Use Committee (IACUC) in accordance with the National Research Council guidelines.
# SW1 or SMI mouse melanoma cells were injected into syngeneic C3H/HeN (or NSG) female or C57BI/6 male mice, respectively. […]
# [1] = test system: cell surface fucosylation; assay: Flow cytometry of cell surface fucosylation (AAL lectin) in melanoma cells; format: cell-based, human; conditions: 250 μM, 72 h, panel of melanoma cell lines
# Experimental: Indicated cells were treated for 72 h with DMSO, 250 μM fucosyltransferase inhibitor (FUTi) (Millipore Sigma (St. Louis, MO)), or 250 μM of L-fucose (Biosynth (Oak Terrace, IL)). After 72 h, cells were stained with 0.1 μM PKH26 (Millipore Sigma (St. Louis, MO)) prior to fixation in 4% formaldehyde solution. The cells were stained with anti-HLA-DRB1 (rabbit anti-human HLA-DRB1 (0.2 μg/mL, ab92371, Abcam (Cambridge, UK)) and fluorescein AAL (0.2 μg/ml. Vector Labs (Burlingame, CA)), or anti-human or anti-mouse PD-L1 (Novus Biologicals (Centennial, CO) or Biolegend (San Diego, CA), respectively) overnight. The following day the cells were washed 3 times prior to adding AlexaFluor 594 donkey anti-rabbit (0.8 μg/mL, ThermoFisher Scientific (Waltham, MA)). Cells were washed 3 times and then subject to flow cytometric analyses using a FACSCalibur™ (BD Biosciences (San Jose, CA)). Samples were analyzed using FlowJo™ analysis software (BD Biosciences (San Jose, CA)). Median values of DRB1 and AAL were normalized to PKH26 values and statistical analysis was performed using GraphPad Prism™.
# SM1 tumors = assay: Anti-PD1 ± L-fucose, SM1 (BRAF-mutant) model in C57BL/6 mice; format: in vivo, mouse
# Text: Fucosylation of HLA-DRB1 occurs on amino acid N48 (mutation to G abolishes interaction with fucose-binding AAL, lectin) (FIG. 9A). […] To further investigate the efficacy of the combination therapy of L-fucose and anti-PD1 and to see if the combination of L-fucose and anti-PD1 improved the efficacy of either agent alone, two mouse melanoma mouse models were used. The first was the NRAS-mutant melanoma mouse model. Here, C3H mice were pretreated with anti-PD1 and/or L-fucose or a L-fucose pre-dose followed by anti-PD1 antibody (FIG. 11). […] Using a BRAF-mutant melanoma model, the efficacy of the combination therapy was more pronounced. Here C57BL6 mice were challenged with SMI cells (FIG. 11). 7 days post challenge, mice received either a control, anti-PD1, L-fucose, or L-fucose and anti-PD1.
# SW1 or SM1 mouse melanoma cells were injected into syngeneic C3H/HeN female or C57BL/6 male mice, respectively. After approximately 7 days, when the mice tumors reached ˜150 mm^3, the mice were either supplemented with or without 100 mM L-fucose (Biosynth (Oak Terrace, IL)) via drinking water, which was provided ad libitum. Simultaneously, the mice were injected either with PBS (control) or anti-PD1 (20 mg/kg, clone RMP1-14, Bioxcell (West Lebanon, NH)) every 3-4 days until endpoint. When the tumors reached ˜2 cm^3, the animals were sacrificed.
# [2] = 100 mM L-fucose in drinking water
compound,measurement,setting,value
C[C@H](O)[C@@H](O)[C@@H](O)[C@H](O)C=O [L-fucose],decreased tumor volume,SM1 melanoma tumors; [2],~60%
same,increase in tumor fucosylation,SM1 melanoma tumors; [2],~4 fold
same,absolute counts of each TIL subpopulation,SM1 melanoma tumors; flow cytometry,significantly increased
same,increase in CD3+ T cell subpopulation,SM1 melanoma tumors; flow cytometry,~15 fold
same,increase in CD4+ and CD8+ T cells,SM1 melanoma tumors; flow cytometry,10-100 fold
same,increase in total TILs,SM1 melanoma tumors; flow cytometry,~10 fold
same,splenic lymphocyte profiles,SM1 melanoma tumors; flow cytometry,did not significantly alter
same,cell surface fucosylation relative to DMSO,[1],increased
same,tumor growth suppressed,SM1 tumors; for 21 days,> 50%
same,tumor suppression compared with anti-PD1,SM1 tumors; single agents,less effective than anti-PD1
